Broadly, the EC50 is the concentration needed to bring the measured effect to its halfway point. A high value points to weaker potency.

For the experiment, the target named is LPA2 (Homo sapiens, UniProt Q9HBW0). The format is cell-based.
LPA2, sequence (Q9HBW0 whole entry): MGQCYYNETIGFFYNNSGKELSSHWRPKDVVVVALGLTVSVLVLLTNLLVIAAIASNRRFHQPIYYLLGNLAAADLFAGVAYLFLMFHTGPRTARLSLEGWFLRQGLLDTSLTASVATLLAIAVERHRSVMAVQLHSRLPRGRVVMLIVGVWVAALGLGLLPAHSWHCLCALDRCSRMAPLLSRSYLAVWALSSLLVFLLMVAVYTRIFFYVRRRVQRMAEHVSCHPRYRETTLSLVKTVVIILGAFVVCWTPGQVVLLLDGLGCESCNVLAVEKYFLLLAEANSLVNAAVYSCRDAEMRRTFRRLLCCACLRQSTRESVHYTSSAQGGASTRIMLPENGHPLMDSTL

With `O=C(O)c1ccccc1S(=O)(=O)NCCCCN1C(=O)c2cccc3cccc(c23)C1=O` [DBIBB, 2-[4-(1,3-Dioxo-1H,3H-benzo[de]isoquinolin-2-yl)butylsulfamoyl] benzoic acid], the EC50 is ~100 nM.

The values above are taken from PMC4336611 (Chemistry & biology, 2015).
